For assay [1], the system named is hUVECs. The assay is described as follows: Cell growth and viability within peptide-crosslinked hydrogels. Particulars: 3.5% 8-arm PEG, 40% arms crosslinking peptide, 10% cyclic RGD, 20 million cells mL^−1, up to Day 7. In kind it is cell-based, human. From the text: (§1) Each of the peptides was then used to crosslink hydrogels containing hMSCs or hUVECs at 20 million cells mL^−1 and cultured for 1, 3, or 7 days. To maximize cell spreading, we made soft hydrogels that were 3.5% 8‐arm poly(ethylene glycol) (PEG) by weight. 40% of the arms were reacted with the crosslinking peptides, and 10% of the arms were functionalized with a cyclic RGD peptide for cell adhesion. […] This supports the inhibitor studies for the soluble peptides in which the MMP‐14 inhibitor completely abolished the degradation of the KLVAD‐LM peptide by hUVECs, but not the PanMMP peptide. (Figure 3C).
(§2) For all hydrogel studies, the total volume of hydrogel was 20 µL, made with 3.5% (wt/wt) PEG, 40% of the arms were functionalized with crosslinking peptides, and 10% were functionalized with cyclic‐RGD, with a final cell concentration of 20 million cells per mL. Briefly, the PEG was dissolved at 140 mg mL^−1 in PBS, the crosslinking peptides were dissolved at 22.4 mM in PBS, and the cyclic RGD was dissolved at 5.6 mM in PBS. hMSCs were harvested from T‐75 flasks. After centrifugation and pouring the supernatant liquid, the cells were resuspended at 80 000 000 or 4 000 000 cells mL^−1. The cyclic RGD and PEG PBS solutions were mixed at the ratio of 1:1. Add 10 µL of the PEG‐cyclic RGD mixer in the wells and incubate for 10 mins. The crosslinking peptides and cell solutions were mixed at a ratio of 1:1. 10 µL of the peptide‐cell mixture was pipetted into the PEG‐cyclic RGD mixer previously dropped in the wells. The solutions were pipetted until well mixed, and after 15 min in the incubator 1 mL of media was added into each well and kept in the incubator. For gels intended for imaging, 12 mm round glass coverslips were placed in each well of the 24‐well plates prior to hydrogel fabrication. For cell viability test, sylgard layers were prepared in 24 well plates to prevent unwanted cell growth on the bottom of the well wall. Sylgard kit Part A/Part B was mixed in a 10:1 ratio by volume, and the mixture was added to the 24 well plates such that the bottom of each well was completely covered by Sylgard. The plates were placed in a biosafety hood overnight with UV light on. For all studies, three technical replicates were done per condition, and the studies were repeated three times.
(§3) The hydrogels were washed with PBS three times and incubated in 4% formaldehyde in PBS for 20 min. The hydrogels were again washed with PBS three times, followed by an incubation in 0.25% Triton X‐100 in PBS solution for 20 min. The hydrogels were washed with PBS three times, followed by a 20‐min incubation of in 1% BSA in PBS. The gels were washed 3x in PBS, and 700 µL of Phalloidin/DAPI PBS staining solution (0.1% BSA, 1 µg mL^−1 DAPI, and 1 µg mL^−1 phalloidin‐iFluor 555) was added to each well, and it was incubated for 1 h in the dark at room temperature. The hydrogels were washed 3x, and 1 mL PBS was added to each well, and they were stored in a 4 °C until they were ready for imaging.
(§4) Hydrogels were imaged by confocal microscope (LSM 800, AxioObserver, EC Olan‐Neofluar 10x/0.3 objective). The 12 mm round slides with hydrogels were taken out of 24 well plates and flipped gel side down on round‐bottom slides. Confocal microscopy was carried out in the Z‐stack mode. Phalloidin was excited at 488 nm and recorded between 493 and 630 nm. DAPI was excited at 405 nm and recorded between 410 and 501 nm. Cells in each hydrogel were measured with ImageJ software according to the particle analysis results and then averaged to obtain the mean cell area in the hydrogels.
(§5) On Days 1, 3, and 7, the media from the wells was removed and 500 µL of a 10× diluted Alamar Blue stock solution in media was added to each well with hydrogels. Three wells without any cells were used for background subtraction. The gels were incubated for 4 h, at which time the absorbance was measured with a spectrophotometer at a wavelength of 579 nm (600 nm reference). […]

Assay [2] deals with hMSCs. Described as above. In kind it is cell-based, human. The note with it: 3.5% 8-arm PEG, 40% arms crosslinking peptide, 10% cyclic RGD, 20 million cells mL^−1, up to Day 7.
Source text: as §1, §2, §3, §4, §5

Where a SMILES comes first, the peptide text is derived from it. [ ]: non-standard residue; d: D form. βAla = NCCC(=O)O

`CC(=O)NCCC(=O)N[C@@H](CCCCN)C(=O)N[C@@H](CC(C)C)C(=O)N[C@H](C(=O)N[C@@H](C)C(=O)N[C@@H](CC(=O)O)C(=O)N[C@@H](CC(N)=O)C(=O)N[C@@H](Cc1ccc(O)cc1)C(=O)N[C@@H](C)C(=O)N[C@@H](CO)C(=O)N[C@@H](C)C(=O)N[C@@H](CCC(=O)O)C(=O)NCCC(N)=O)C(C)C` [KLVAD-NY] (Ac-[βAla]KLVADNYASAE[βAla]-NH2): the “cell spreading, growth and viability of hUVECs in crosslinked hydrogels” value in assay [1] is given as “only minimal cell spreading”. Further, in assay [2], the “cell spreading, growth and viability of hMSCs in crosslinked hydrogels” value is on record as “no detectable cells”.

On to `CSCC[C@H](NC(=O)[C@H](CC(C)C)NC(=O)[C@H](CC(=O)O)NC(=O)[C@H](C)NC(=O)[C@@H](NC(=O)[C@H](CC(C)C)NC(=O)[C@H](CCCCN)NC(=O)CCNC(C)=O)C(C)C)C(=O)N[C@@H](C)C(=O)N[C@@H](CO)C(=O)N[C@@H](C)C(=O)N[C@@H](CCC(=O)O)C(=O)NCCC(N)=O` [KLVAD-LM] (Ac-[βAla]KLVADLMASAE[βAla]-NH2), for which the “cell spreading, growth and viability of hUVECs in crosslinked hydrogels” value in assay [1] was “supported cell spreading and growth”. Besides, in assay [2], the “cell spreading, growth and viability of hMSCs in crosslinked hydrogels” value is “supported cell spreading and growth”.

As for `CC(=O)NCCC(=O)N[C@@H](CCCCN)C(=O)N[C@@H](CC(C)C)C(=O)N[C@H](C(=O)N[C@@H](C)C(=O)N[C@@H](CC(=O)O)C(=O)N1CCC[C@H]1C(=O)N[C@@H](Cc1ccc(O)cc1)C(=O)N[C@@H](C)C(=O)N[C@@H](CO)C(=O)N[C@@H](C)C(=O)N[C@@H](CCC(=O)O)C(=O)NCCC(N)=O)C(C)C` [KLVAD-PY] (Ac-[βAla]KLVADPYASAE[βAla]-NH2), in assay [1], the “cell spreading, growth and viability of hUVECs in crosslinked hydrogels” value was “less cell spreading and viability”. In addition, the “cell spreading, growth and viability of hMSCs in crosslinked hydrogels” value in assay [2] is “less cell spreading and viability”.

These data come from article PMC12683216, “Using High‐Throughput Screening to Identify Crosslinking Peptides That Control Cell‐Mediated Matrix Degradation” (Advanced Healthcare Materials, 2025).
